Patent US11672251B2, “Herbicidally active pyridyl-/pyrimidyl-pyrimidine derivatives” (Syngenta Participations AG, priority 2017, dated 2023)

Key:
Assay type in all cases: in vivo
[1] = system: Abutilon theophrasti (ABUTH); assay: B1 pre-emergence herbicidal activity; details: Test 1a, rate 1000 g/ha, evaluated after 13 days, scale 5=total damage to plant, 0=no damage to plant
Protocol: (§1) Seeds of a variety of test species were sown in standard soil in pots: Triticum aestivium (TRZAW), Avena fatua (AVEFA), Alopecurus myosuroides (ALOMY), Echinochloa crus-galli (ECHCG), Lolium perenne (LOLPE), Zea Mays (ZEAMX), Abutilon theophrasti (ABUTH), Amaranthus retroflexus (AMARE) and Setaria faberi (SETFA). After cultivation for one day (pre-emergence) under controlled conditions in a glasshouse (at 24/16° C., day/night; 14 hours light; 65% humidity), the plants were sprayed with an aqueous spray solution derived from the formulation of the technical active ingredient in acetone/water (50:50) solution containing 0.5% Tween 20 (polyoxyethelyene sorbitan monolaurate, CAS RN 9005-64-5). The test plants were then grown in a glasshouse under controlled conditions (at 24/16° C., day/night; 14 hours light; 65% humidity) and watered twice daily. After 13 days, the test was evaluated (5=total damage to plant; 0=no damage to plant).

[2] = system: Amaranthus retroflexus (AMARE); assay: B1 pre-emergence herbicidal activity; details: Test 1a, rate 1000 g/ha, evaluated after 13 days, scale 5=total damage to plant, 0=no damage to plant
Protocol: as §1

[3] = system: Echinochloa crus-galli (ECHCG); assay: B1 pre-emergence herbicidal activity; details: rate 1000 g/ha, evaluated after 13 days, scale 5=total damage to plant, 0=no damage to plant
Protocol: as §1

Lolium perenne (LOLPE) [4] = assay: B1 pre-emergence herbicidal activity; details: rate 1000 g/ha, evaluated after 13 days, scale 5=total damage to plant, 0=no damage to plant
Protocol: as §1

Setaria faberi (SETFA) [5] = assay: B1 pre-emergence herbicidal activity; details: rate 1000 g/ha, evaluated after 13 days, scale 5=total damage to plant, 0=no damage to plant
Protocol: as §1

Zea Mays (ZEAMX) [6] = assay: B1 pre-emergence herbicidal activity; details: Test 1a, rate 1000 g/ha, evaluated after 13 days, scale 5=total damage to plant, 0=no damage to plant
Protocol: as §1

[7] = system: Abutilon theophrasti (ABUTH); assay: B2 post-emergence herbicidal activity; details: Test B2a; post-emergence (sprayed after 8 days cultivation); rate 1000 g/ha; evaluated after 13 days; scale 5=total damage to plant, 0=no damage to plant
Protocol: (§2) Seeds of a variety of test species were sown in standard soil in pots: Triticum aestivium (TRZAW), Avena fatua (AVEFA), Alopecurus myosuroides (ALOMY), Echinochloa crus-galli (ECHCG), Lolium perenne (LOLPE), Zea Mays (ZEAMX), Abutilon theophrasti (ABUTH), Amaranthus retroflexus (AMARE) and Setaria faberi (SETFA). After 8 days cultivation (post-emergence) under controlled conditions in a glasshouse (at 24/16° C., day/night; 14 hours light; 65% humidity), the plants were sprayed with an aqueous spray solution derived from the formulation of the technical active ingredient in acetone/water (50:50) solution containing 0.5% Tween 20 (polyoxyethelyene sorbitan monolaurate, CAS RN 9005-64-5). The test plants were then grown in a glasshouse under controlled conditions (at 24/16° C., day/night; 14 hours light; 65% humidity) and watered twice daily. After 13 days, the test was evaluated (5=total damage to plant; 0=no damage to plant).

[8] = system: Amaranthus retroflexus (AMARE); assay: B2 post-emergence herbicidal activity; details: Test B2a; post-emergence (sprayed after 8 days cultivation); rate 1000 g/ha; evaluated after 13 days; scale 5=total damage to plant, 0=no damage to plant
Protocol: as §2

[9] = system: Echinochloa crus-galli (ECHCG); assay: B2 post-emergence herbicidal activity; details: post-emergence (sprayed after 8 days cultivation), rate 1000 g/ha, evaluated after 13 days, scale 5=total damage to plant, 0=no damage to plant
Protocol: as §2

Lolium perenne (LOLPE) [10] = assay: B2 post-emergence herbicidal activity; details: post-emergence (sprayed after 8 days cultivation), rate 1000 g/ha, evaluated after 13 days, scale 5=total damage to plant, 0=no damage to plant
Protocol: as §2

Setaria faberi (SETFA) [11] = assay: B2 post-emergence herbicidal activity; details: post-emergence (sprayed after 8 days cultivation), rate 1000 g/ha, evaluated after 13 days, scale 5=total damage to plant, 0=no damage to plant
Protocol: as §2

Zea Mays (ZEAMX) [12] = assay: B2 post-emergence herbicidal activity; details: Test B2a; post-emergence (sprayed after 8 days cultivation); rate 1000 g/ha; evaluated after 13 days; scale 5=total damage to plant, 0=no damage to plant
Protocol: as §2

[13] = system: Alopecurus myosuroides (ALOMY); assay: B1 pre-emergence herbicidal activity; details: Test 1b, rate 1000 g/ha, evaluated after 13 days, scale 5=total damage to plant, 0=no damage to plant
Protocol: as §1

Avena fatua (AVEFA) [14] = assay: B1 pre-emergence herbicidal activity; details: Test 1b, rate 1000 g/ha, evaluated after 13 days, scale 5=total damage to plant, 0=no damage to plant
Protocol: as §1

[15] = system: Triticum aestivium (TRZAW); assay: B1 pre-emergence herbicidal activity; details: Test 1b, rate 1000 g/ha, evaluated after 13 days, scale 5=total damage to plant, 0=no damage to plant
Protocol: as §1

[16] = system: Alopecurus myosuroides (ALOMY); assay: B2 post-emergence herbicidal activity; details: Test B2b; post-emergence (sprayed after 8 days cultivation); rate 1000 g/ha; evaluated after 13 days; scale 5=total damage to plant, 0=no damage to plant
Protocol: as §2

Avena fatua (AVEFA) [17] = assay: B2 post-emergence herbicidal activity; details: Test B2b; post-emergence (sprayed after 8 days cultivation); rate 1000 g/ha; evaluated after 13 days; scale 5=total damage to plant, 0=no damage to plant
Protocol: as §2

[18] = system: Triticum aestivium (TRZAW); assay: B2 post-emergence herbicidal activity; details: Test B2b; post-emergence (sprayed after 8 days cultivation); rate 1000 g/ha; evaluated after 13 days; scale 5=total damage to plant, 0=no damage to plant
Protocol: as §2

Q: `Cc1nc(-c2cncc(F)c2)ncc1N` [Compound D2, 2-(5-fluoro-3-pyridyl)-4-methyl-pyrimidin-5-amine] was tested. Which “Control after pre-emergence application, damage score: ABUTH” value [1] did it give?
A: 1

Q: And the “Control after pre-emergence application, damage score: AMARE” value [2]?
A: 1

Q: What about the “Control after pre-emergence application, damage score: ECHCG” value ([3]; Test 1a) of the same compound?
A: 1

Q: What about the “Control after pre-emergence application, damage score: LOLPE” value (Lolium perenne (LOLPE) [4]; Test 1a) of the same compound?
A: 0

Q: And the “Control after pre-emergence application, damage score: SETFA” value (Setaria faberi (SETFA) [5]; Test 1a)?
A: 2

Q: What about the “Control after pre-emergence application, damage score: ZEAMX” value (Zea Mays (ZEAMX) [6]) of the same compound?
A: 0

Q: And the “Control after post-emergence application, damage score: ABUTH” value [7]?
A: 1

Q: What about the “Control after post-emergence application, damage score: AMARE” value [8] of the same compound?
A: 1

Q: What about the “Control after post-emergence application, damage score: ECHCG” value ([9]; Test B2a) of the same compound?
A: 2

Q: What about the “Control after post-emergence application, damage score: LOLPE” value (Lolium perenne (LOLPE) [10]; Test B2a) of the same compound?
A: 1

Q: What about the “Control after post-emergence application, damage score: SETFA” value (Setaria faberi (SETFA) [11]; Test B2a) of the same compound?
A: 3

Q: What about the “Control after post-emergence application, damage score: ZEAMX” value (Zea Mays (ZEAMX) [12]) of the same compound?
A: 1

Q: Which results are given for `CNc1cnc(-c2cncc(F)c2)nc1C` [Compound D1, 2-(5-fluoro-3-pyridyl)-N,4-dimethyl-pyrimidin-5-amine]?
A: Control after pre-emergence application, damage score: ABUTH [1]: 1; Control after pre-emergence application, damage score: AMARE [2]: 1; Control after pre-emergence application, damage score: ECHCG ([3]; Test 1a): 1; Control after pre-emergence application, damage score: LOLPE (Lolium perenne (LOLPE) [4]; Test 1a): 0; Control after pre-emergence application, damage score: SETFA (Setaria faberi (SETFA) [5]; Test 1a): 3; Control after pre-emergence application, damage score: ZEAMX (Zea Mays (ZEAMX) [6]): 0; Control after post-emergence application, damage score: ABUTH [7]: 0; Control after post-emergence application, damage score: AMARE [8]: 0; Control after post-emergence application, damage score: ECHCG ([9]; Test B2a): 2; Control after post-emergence application, damage score: LOLPE (Lolium perenne (LOLPE) [10]; Test B2a): 1; Control after post-emergence application, damage score: SETFA (Setaria faberi (SETFA) [11]; Test B2a): 3; Control after post-emergence application, damage score: ZEAMX (Zea Mays (ZEAMX) [12]): 1

Q: How did the “Control after pre-emergence application, damage score: ALOMY” value [13] turn out when `CCCN(CCC)c1cnc(-c2cncc(F)c2)nc1C(F)(F)F` [Compound D14, 2-(5-fluoro-3-pyridyl)-N,N-dipropyl-4-(trifluoromethyl)pyrimidin-5-amine] was run?
A: 1

Q: What about the “Control after pre-emergence application, damage score: AVEFA” value (Avena fatua (AVEFA) [14]) of the same compound?
A: 0

Q: What about the “Control after pre-emergence application, damage score: ECHCG” value ([3]; Test 1b) of the same compound?
A: 2

Q: What about the “Control after pre-emergence application, damage score: LOLPE” value (Lolium perenne (LOLPE) [4]; Test 1b) of the same compound?
A: 1

Q: What about the “Control after pre-emergence application, damage score: SETFA” value (Setaria faberi (SETFA) [5]; Test 1b) of the same compound?
A: 2

Q: And the “Control after pre-emergence application, damage score: TRAZW” value [15]?
A: 1

Q: What about the “Control after post-emergence application, damage score: ALOMY” value [16] of the same compound?
A: 1

Q: What about the “Control after post-emergence application, damage score: AVEFA” value (Avena fatua (AVEFA) [17]) of the same compound?
A: 3

Q: What about the “Control after post-emergence application, damage score: ECHCG” value ([9]; Test B2b) of the same compound?
A: 4

Q: And the “Control after post-emergence application, damage score: LOLPE” value (Lolium perenne (LOLPE) [10]; Test B2b)?
A: 2

Q: What about the “Control after post-emergence application, damage score: SETFA” value (Setaria faberi (SETFA) [11]; Test B2b) of the same compound?
A: 4

Q: What about the “Control after post-emergence application, damage score: TRAZW” value [18] of the same compound?
A: 0

Q: Which results are given for `C=CCNc1cnc(-c2cncnc2)nc1C` [Compound D7]?
A: Control after pre-emergence application, damage score: ALOMY [13]: 0; Control after pre-emergence application, damage score: AVEFA (Avena fatua (AVEFA) [14]): 1; Control after pre-emergence application, damage score: ECHCG ([3]; Test 1b): 2; Control after pre-emergence application, damage score: LOLPE (Lolium perenne (LOLPE) [4]; Test 1b): 1; Control after pre-emergence application, damage score: SETFA (Setaria faberi (SETFA) [5]; Test 1b): 4; Control after pre-emergence application, damage score: TRAZW [15]: 0; Control after post-emergence application, damage score: ALOMY [16]: 0; Control after post-emergence application, damage score: AVEFA (Avena fatua (AVEFA) [17]): 1; Control after post-emergence application, damage score: ECHCG ([9]; Test B2b): 2; Control after post-emergence application, damage score: LOLPE (Lolium perenne (LOLPE) [10]; Test B2b): 0; Control after post-emergence application, damage score: SETFA (Setaria faberi (SETFA) [11]; Test B2b): 4; Control after post-emergence application, damage score: TRAZW [18]: 1
